Assay results reported in the NIST ThermoML archive (doi:10.1016/j.jct.2008.11.008).
Numbers after ± are expanded uncertainties.

Experiment: molar enthalpy of vaporization or sublimation
Conditions: 298.15 K; Liquid; Calvet microcalorimetry

Row | molar enthalpy [kcal/mol] | SMILES
1 | 13.9 ± 0.574 | COc1cccc(Br)c1 [1-bromo-3-methoxybenzene]
2 | 13.9 ± 0.574 | COc1ccc(Br)cc1 [1-bromo-4-methoxybenzene]
3 | 14.8 ± 0.621 | COc1ccccc1Br [1-bromo-2-methoxybenzene]
